A compilation of properties of binary mixtures (doi:10.1016/j.molliq.2022.120410)

Test: xn = mol fraction of the nth substance listed
Conditions: 101.3 kPa

CC[NH3+].O=[N+]([O-])[O-] + OCCOCCO
speed of sound [m/s]
Conditions | 298.1 K | 308.1 K | 318.1 K
x1 = 0.0488 | 1599.6 | 1576.8 | 1553.8
x1 = 0.0983 | 1614.6 | 1592 | 1569.5
x1 = 0.197 | 1632 | 1609.6 | 1587.5
x1 = 0.2961 | 1639.9 | 1619.1 | 1598.3
x1 = 0.3955 | 1644.5 | 1625.4 | 1605.9
x1 = 0.4954 | 1643.9 | 1625.6 | 1607.3
x1 = 0.5955 | 1643.2 | 1626.3 | 1609.1
x1 = 0.6961 | 1641.7 | 1625.6 | 1609.1
x1 = 0.797 | 1640 | – | 1607.8
x1 = 0.8983 | 1638.6 | 1622.8 | 1607.3
x1 = 1 | – | 1624.7 | 1609.3

OCCOCCO + CC[NH3+].O=[N+]([O-])[O-]
x2 = 0
Conditions | speed of sound [m/s]
298.1 K | 1580.6
308.1 K | 1556.6
